In ChEMBL document CHEMBL4507286 (2021):

Experiments:
[1] = system: ALK tyrosine kinase receptor (Homo sapiens), Q9UM73 [L1196M]
[2] = biological target: Calcium/calmodulin-dependent protein kinase type 1D (Homo sapiens) (UniProt Q8IU85)
[3] = biological target: Calcium/calmodulin-dependent protein kinase type 1G (Homo sapiens) (UniProt Q96NX5)
[4] = biological target: Calcium/calmodulin-dependent protein kinase kinase 1 (Homo sapiens) (UniProt Q8N5S9)
[5] = biological target: Dual specificity protein kinase CLK3 (Homo sapiens) (UniProt P49761)
Chain of Dual specificity protein kinase CLK3 (Homo sapiens) (P49761 whole entry, looked up): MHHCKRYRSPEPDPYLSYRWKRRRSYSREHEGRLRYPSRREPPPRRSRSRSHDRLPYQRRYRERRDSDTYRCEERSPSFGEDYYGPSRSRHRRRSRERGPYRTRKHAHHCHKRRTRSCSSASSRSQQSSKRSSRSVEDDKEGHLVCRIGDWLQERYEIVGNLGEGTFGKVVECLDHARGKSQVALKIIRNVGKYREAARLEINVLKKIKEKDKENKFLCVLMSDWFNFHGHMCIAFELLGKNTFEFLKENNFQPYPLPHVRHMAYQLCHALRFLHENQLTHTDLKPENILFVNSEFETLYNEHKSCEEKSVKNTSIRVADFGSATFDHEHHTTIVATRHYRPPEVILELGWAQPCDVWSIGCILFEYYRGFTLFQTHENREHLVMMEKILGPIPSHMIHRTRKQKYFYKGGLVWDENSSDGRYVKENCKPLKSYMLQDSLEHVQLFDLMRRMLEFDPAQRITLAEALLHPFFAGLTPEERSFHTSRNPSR

[6] = biological target: Death-associated protein kinase 2 (Homo sapiens) (UniProt Q9UIK4)
[7] = biological target: Death-associated protein kinase 3 (Homo sapiens) (UniProt O43293)
[8] = biological target: Serine/threonine-protein kinase DCLK2 (Homo sapiens) (UniProt Q8N568)
[9] = biological target: Dual specificity tyrosine-phosphorylation-regulated kinase 1A (Homo sapiens) (UniProt Q13627)
[10] = system: Epidermal growth factor receptor (Homo sapiens), P00533 [G719C]
[11] = system: Epidermal growth factor receptor (Homo sapiens), P00533 [L858R,T790M]
[12] = biological target: Ephrin type-A receptor 3 (Homo sapiens) (UniProt P29320)
[13] = biological target: Ephrin type-A receptor 4 (Homo sapiens) (UniProt P54764)
[14] = biological target: Ephrin type-B receptor 3 (Homo sapiens) (UniProt P54753)
[15] = biological target: Receptor tyrosine-protein kinase erbB-2 (Homo sapiens) (UniProt P04626)
[16] = biological target: Fibroblast growth factor receptor 1 (Homo sapiens) (UniProt P11362)
[17] = biological target: Vascular endothelial growth factor receptor 1 (Homo sapiens) (UniProt P17948)
[18] = biological target: Mast/stem cell growth factor receptor Kit (Homo sapiens) (UniProt P10721)
Chain of Mast/stem cell growth factor receptor Kit (Homo sapiens) (P10721 whole entry): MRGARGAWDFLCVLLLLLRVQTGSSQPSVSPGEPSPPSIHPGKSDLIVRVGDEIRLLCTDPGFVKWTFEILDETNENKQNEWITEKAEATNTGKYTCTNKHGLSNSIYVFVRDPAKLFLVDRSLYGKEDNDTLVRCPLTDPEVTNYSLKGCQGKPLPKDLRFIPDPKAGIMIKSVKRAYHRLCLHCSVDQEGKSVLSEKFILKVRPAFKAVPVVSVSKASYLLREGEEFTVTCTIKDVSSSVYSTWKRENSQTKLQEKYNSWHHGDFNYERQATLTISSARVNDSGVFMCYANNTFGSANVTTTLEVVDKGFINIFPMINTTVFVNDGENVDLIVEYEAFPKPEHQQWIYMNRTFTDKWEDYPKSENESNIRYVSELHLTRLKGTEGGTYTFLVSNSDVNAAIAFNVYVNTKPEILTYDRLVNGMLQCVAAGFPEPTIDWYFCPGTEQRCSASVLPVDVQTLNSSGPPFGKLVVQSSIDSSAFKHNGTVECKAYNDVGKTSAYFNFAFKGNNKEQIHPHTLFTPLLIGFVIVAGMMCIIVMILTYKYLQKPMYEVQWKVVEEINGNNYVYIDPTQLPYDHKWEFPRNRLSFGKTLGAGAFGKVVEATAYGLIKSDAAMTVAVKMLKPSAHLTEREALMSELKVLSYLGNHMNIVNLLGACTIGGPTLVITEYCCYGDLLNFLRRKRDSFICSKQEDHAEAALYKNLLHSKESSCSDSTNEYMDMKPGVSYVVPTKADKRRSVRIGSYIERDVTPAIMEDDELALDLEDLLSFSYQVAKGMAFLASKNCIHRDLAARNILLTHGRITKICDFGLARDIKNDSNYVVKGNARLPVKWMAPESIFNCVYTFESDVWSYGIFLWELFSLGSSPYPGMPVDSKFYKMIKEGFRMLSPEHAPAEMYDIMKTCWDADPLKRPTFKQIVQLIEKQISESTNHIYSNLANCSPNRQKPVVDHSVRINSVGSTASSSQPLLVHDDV

[19] = system: Mast/stem cell growth factor receptor Kit (Homo sapiens), P10721 [A829P]
[20] = system: Mast/stem cell growth factor receptor Kit (Homo sapiens), P10721 [D816H]
[21] = system: Mast/stem cell growth factor receptor Kit (Homo sapiens), P10721 [V559D,T670I]
[22] = biological target: Tyrosine-protein kinase Lyn (Homo sapiens) (UniProt P07948)
[23] = biological target: MAP/microtubule affinity-regulating kinase 3 (Homo sapiens) (UniProt P27448)
[24] = biological target: Dual specificity mitogen-activated protein kinase kinase 2 (Homo sapiens) (UniProt P36507)
[25] = biological target: Serine/threonine-protein kinase Nek10 (Homo sapiens) (UniProt Q6ZWH5)
[26] = biological target: Serine/threonine-protein kinase OSR1 (Homo sapiens) (UniProt O95747)
[27] = biological target: Serine/threonine-protein kinase PAK 6 (Homo sapiens) (UniProt Q9NQU5)
[28] = biological target: Calcium-dependent protein kinase 1 (Plasmodium falciparum) (UniProt P62344)
[29] = biological target: Protein kinase C eta type (Homo sapiens) (UniProt P24723)
Chain of Protein kinase C eta type (Homo sapiens) (P24723 whole entry): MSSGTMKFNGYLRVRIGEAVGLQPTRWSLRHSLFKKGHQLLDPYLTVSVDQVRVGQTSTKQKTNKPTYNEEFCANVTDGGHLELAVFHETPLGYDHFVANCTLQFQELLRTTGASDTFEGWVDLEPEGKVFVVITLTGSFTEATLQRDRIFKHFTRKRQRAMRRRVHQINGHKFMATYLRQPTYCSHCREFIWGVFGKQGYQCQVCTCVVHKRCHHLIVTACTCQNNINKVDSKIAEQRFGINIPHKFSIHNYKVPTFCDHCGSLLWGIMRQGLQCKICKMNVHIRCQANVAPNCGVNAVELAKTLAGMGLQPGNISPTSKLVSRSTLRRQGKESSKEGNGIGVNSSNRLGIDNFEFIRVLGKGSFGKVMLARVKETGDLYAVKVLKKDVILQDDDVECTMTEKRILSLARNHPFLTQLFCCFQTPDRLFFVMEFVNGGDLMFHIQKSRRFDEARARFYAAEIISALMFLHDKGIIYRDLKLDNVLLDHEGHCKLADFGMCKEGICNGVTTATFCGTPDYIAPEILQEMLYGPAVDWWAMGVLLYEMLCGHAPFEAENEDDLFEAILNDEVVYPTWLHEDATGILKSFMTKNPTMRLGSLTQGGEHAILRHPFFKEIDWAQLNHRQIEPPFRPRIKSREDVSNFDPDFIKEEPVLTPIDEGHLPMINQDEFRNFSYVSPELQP

[30] = biological target: Protein-tyrosine kinase 2-beta (Homo sapiens) (UniProt Q14289)
[31] = biological target: Ribosomal protein S6 kinase alpha-5 (Homo sapiens) (UniProt O75582)
Chain of Ribosomal protein S6 kinase alpha-5 (Homo sapiens) (O75582 whole entry, looked up): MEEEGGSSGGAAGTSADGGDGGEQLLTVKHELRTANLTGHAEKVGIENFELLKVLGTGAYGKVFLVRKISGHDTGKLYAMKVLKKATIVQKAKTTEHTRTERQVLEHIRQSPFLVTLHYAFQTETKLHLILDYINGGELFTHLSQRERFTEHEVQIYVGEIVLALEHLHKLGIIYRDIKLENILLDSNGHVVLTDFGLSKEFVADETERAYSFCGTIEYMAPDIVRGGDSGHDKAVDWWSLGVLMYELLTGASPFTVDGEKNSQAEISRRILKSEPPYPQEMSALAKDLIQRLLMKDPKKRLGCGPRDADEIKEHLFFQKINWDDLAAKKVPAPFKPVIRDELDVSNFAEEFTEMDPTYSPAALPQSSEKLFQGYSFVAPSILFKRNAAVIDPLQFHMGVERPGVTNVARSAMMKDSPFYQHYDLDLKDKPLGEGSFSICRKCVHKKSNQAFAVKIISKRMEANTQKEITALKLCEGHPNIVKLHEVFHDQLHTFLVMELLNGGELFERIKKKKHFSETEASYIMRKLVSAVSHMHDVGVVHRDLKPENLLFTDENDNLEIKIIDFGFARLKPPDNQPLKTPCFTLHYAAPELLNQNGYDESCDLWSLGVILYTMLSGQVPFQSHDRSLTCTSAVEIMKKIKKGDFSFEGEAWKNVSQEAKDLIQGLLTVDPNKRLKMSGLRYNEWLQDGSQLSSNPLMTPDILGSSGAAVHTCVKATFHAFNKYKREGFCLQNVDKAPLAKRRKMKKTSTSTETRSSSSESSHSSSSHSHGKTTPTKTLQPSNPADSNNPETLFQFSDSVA

[32] = biological target: Ribosomal protein S6 kinase alpha-6 (Homo sapiens) (UniProt Q9UK32)
[33] = biological target: Serine/threonine-protein kinase Sgk3 (Homo sapiens) (UniProt Q96BR1)
[34] = biological target: Serine/threonine-protein kinase SIK1 (Homo sapiens) (UniProt P57059)
[35] = biological target: STE20-like serine/threonine-protein kinase (Homo sapiens) (UniProt Q9H2G2)
[36] = biological target: Tyrosine-protein kinase Tec (Homo sapiens) (UniProt P42680)
[37] = biological target: Tyrosine-protein kinase receptor TYRO3 (Homo sapiens) (UniProt Q06418)
[38] = biological target: Phosphatidylinositol 3-kinase catalytic subunit type 3 (Homo sapiens) (UniProt Q8NEB9)
[39] = biological target: Wee1-like protein kinase 2 (Homo sapiens) (UniProt P0C1S8)
[40] = biological target: Serine/threonine-protein kinase WNK3 (Homo sapiens) (UniProt Q9BYP7)
[41] = biological target: 5-hydroxytryptamine receptor 7 (Homo sapiens) (UniProt P34969); settings: Compound concentration 10.0 uM
[42] = biological target: D(4) dopamine receptor (Homo sapiens) (UniProt P21917); settings: Compound concentration 10.0 uM
[43] = biological target: Sodium-dependent noradrenaline transporter (Homo sapiens) (UniProt P23975); settings: Compound concentration 10.0 uM
[44] = biological target: Alpha-1A adrenergic receptor (Homo sapiens) (UniProt P35348); settings: Compound concentration 10.0 uM
[45] = biological target: Muscarinic acetylcholine receptor M5 (Homo sapiens) (UniProt P08912); settings: Compound concentration 10.0 uM
[46] = species: Rattus norvegicus; settings: Compound concentration 10.0 uM
[47] = Compound concentration 100.0 nM
[48] = Compound concentration 1000.0 nM

Chain of ALK tyrosine kinase receptor (Homo sapiens), Q9UM73 [L1196M] (Q9UM73 whole entry L1196M, looked up): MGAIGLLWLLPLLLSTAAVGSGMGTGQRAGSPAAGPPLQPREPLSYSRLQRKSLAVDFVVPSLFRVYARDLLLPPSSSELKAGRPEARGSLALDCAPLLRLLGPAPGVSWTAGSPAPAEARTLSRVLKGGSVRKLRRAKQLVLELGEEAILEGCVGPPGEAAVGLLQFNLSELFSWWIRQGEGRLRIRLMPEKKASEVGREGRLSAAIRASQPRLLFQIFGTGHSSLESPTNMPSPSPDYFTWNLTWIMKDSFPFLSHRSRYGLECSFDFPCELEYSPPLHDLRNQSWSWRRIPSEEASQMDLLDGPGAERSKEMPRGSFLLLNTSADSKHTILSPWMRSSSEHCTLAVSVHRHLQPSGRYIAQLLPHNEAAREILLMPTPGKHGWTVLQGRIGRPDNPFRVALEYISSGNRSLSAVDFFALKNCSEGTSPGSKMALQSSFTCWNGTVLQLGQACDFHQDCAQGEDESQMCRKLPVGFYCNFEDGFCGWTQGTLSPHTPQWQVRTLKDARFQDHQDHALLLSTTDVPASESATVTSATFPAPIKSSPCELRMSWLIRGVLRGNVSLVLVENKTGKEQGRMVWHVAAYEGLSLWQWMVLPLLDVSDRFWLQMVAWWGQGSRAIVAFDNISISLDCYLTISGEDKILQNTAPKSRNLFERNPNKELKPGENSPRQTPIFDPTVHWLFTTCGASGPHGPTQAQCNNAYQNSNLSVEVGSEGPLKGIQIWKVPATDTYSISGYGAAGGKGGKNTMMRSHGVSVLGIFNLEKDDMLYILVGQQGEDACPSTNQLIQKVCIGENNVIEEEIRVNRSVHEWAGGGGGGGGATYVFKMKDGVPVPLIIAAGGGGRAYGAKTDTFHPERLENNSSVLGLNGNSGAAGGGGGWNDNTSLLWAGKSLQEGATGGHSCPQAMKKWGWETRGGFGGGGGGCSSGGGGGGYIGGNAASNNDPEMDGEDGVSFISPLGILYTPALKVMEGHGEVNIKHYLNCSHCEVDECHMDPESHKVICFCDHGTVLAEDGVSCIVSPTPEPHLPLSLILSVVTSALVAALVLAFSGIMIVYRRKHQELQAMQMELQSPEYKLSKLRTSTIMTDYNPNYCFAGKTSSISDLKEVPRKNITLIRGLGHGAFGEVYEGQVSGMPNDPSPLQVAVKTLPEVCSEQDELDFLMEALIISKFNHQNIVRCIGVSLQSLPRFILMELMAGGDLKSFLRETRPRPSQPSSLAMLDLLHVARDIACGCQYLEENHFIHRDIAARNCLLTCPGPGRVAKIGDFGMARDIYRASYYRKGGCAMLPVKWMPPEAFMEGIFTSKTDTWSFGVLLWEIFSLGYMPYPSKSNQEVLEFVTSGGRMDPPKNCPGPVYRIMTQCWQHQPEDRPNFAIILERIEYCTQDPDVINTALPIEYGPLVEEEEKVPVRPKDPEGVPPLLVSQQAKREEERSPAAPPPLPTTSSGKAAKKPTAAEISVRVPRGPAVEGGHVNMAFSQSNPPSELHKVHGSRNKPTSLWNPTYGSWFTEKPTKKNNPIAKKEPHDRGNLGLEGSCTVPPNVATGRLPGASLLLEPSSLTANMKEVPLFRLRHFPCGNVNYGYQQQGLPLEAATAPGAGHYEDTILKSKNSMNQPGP
Chain of Calcium/calmodulin-dependent protein kinase kinase 1 (Homo sapiens) (Q8N5S9 whole entry, looked up): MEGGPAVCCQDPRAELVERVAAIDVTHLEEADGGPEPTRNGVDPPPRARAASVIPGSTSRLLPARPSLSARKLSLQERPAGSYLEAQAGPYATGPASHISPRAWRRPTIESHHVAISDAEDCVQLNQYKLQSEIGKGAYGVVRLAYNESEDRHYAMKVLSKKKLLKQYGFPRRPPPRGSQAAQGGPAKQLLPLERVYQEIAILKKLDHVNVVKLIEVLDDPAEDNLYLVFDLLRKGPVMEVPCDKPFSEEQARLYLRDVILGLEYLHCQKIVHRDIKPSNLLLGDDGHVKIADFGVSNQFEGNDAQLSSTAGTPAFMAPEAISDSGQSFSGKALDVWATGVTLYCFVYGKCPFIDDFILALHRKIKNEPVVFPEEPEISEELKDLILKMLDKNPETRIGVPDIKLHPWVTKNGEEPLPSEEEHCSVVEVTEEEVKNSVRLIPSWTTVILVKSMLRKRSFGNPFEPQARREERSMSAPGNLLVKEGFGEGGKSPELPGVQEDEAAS

Question: `C[C@@H](NC(=O)Nc1cc2[nH]ncc2c(CO)n1)c1ccccc1` [ERKi] was tested. Which residual activity [1, 47] did it give?
Answer: Its residual activity is 96.9%.

Question: What about the residual activity [2, 47] of the same molecule?
Answer: The residual activity was 83.3%.

Question: What about the residual activity [3, 47] of the same molecule?
Answer: Its residual activity is 70.6%.

Question: And the residual activity [4, 47]?
Answer: The residual activity was 87.5%.

Question: What about the residual activity [5, 47] of the same molecule?
Answer: The residual activity was 82.2%.

Question: And the residual activity [6, 47]?
Answer: The residual activity was 66.3%.

Question: And the residual activity [7, 47]?
Answer: Its residual activity is 77.4%.

Question: What about the residual activity [8, 47] of the same molecule?
Answer: Its residual activity is 97.7%.

Question: And the residual activity [9, 47]?
Answer: The residual activity was 49%.

Question: And the residual activity [10, 47]?
Answer: Its residual activity is 95.7%.

Question: And the residual activity [11, 47]?
Answer: Its residual activity is 100%.

Question: What about the residual activity [12, 47] of the same molecule?
Answer: The residual activity was 79.4%.

Question: And the residual activity [13, 47]?
Answer: The residual activity was 100%.

Question: And the residual activity [14, 47]?
Answer: Its residual activity is 94.8%.

Question: What about the residual activity [15, 47] of the same molecule?
Answer: Its residual activity is 100%.

Question: And the residual activity [16, 47]?
Answer: The residual activity was 94.1%.

Question: And the residual activity [17, 47]?
Answer: Its residual activity is 100%.

Question: What about the residual activity [18, 47] of the same molecule?
Answer: Its residual activity is 92.5%.

Question: And the residual activity [19, 47]?
Answer: Its residual activity is 55.1%.

Question: What about the residual activity [20, 47] of the same molecule?
Answer: Its residual activity is 86.9%.

Question: What about the residual activity [21, 47] of the same molecule?
Answer: The residual activity was 83.7%.

Question: What about the residual activity [22, 47] of the same molecule?
Answer: The residual activity was 84.5%.

Question: What about the residual activity [23, 47] of the same molecule?
Answer: The residual activity was 100%.

Question: What about the residual activity [24, 47] of the same molecule?
Answer: The residual activity was 84.8%.

Question: What about the residual activity [25, 47] of the same molecule?
Answer: Its residual activity is 100%.

Question: What about the residual activity [26, 47] of the same molecule?
Answer: The residual activity was 69.8%.

Question: What about the residual activity [27, 47] of the same molecule?
Answer: Its residual activity is 63.5%.

Question: What about the residual activity [28, 47] of the same molecule?
Answer: The residual activity was 82.9%.

Question: What about the residual activity [29, 47] of the same molecule?
Answer: Its residual activity is 90.1%.

Question: And the residual activity [30, 47]?
Answer: The residual activity was 75%.

Question: What about the residual activity [31, 47] of the same molecule?
Answer: Its residual activity is 87.8%.

Question: And the residual activity [32, 47]?
Answer: The residual activity was 83.4%.

Question: And the residual activity [33, 47]?
Answer: The residual activity was 83.2%.

Question: What about the residual activity [34, 47] of the same molecule?
Answer: The residual activity was 100%.

Question: What about the residual activity [35, 47] of the same molecule?
Answer: Its residual activity is 92.6%.

Question: And the residual activity [36, 47]?
Answer: The residual activity was 93.6%.

Question: And the residual activity [37, 47]?
Answer: The residual activity was 100%.

Question: And the residual activity [38, 47]?
Answer: The residual activity was 71.2%.

Question: And the residual activity [39, 47]?
Answer: The residual activity was 77.6%.

Question: And the residual activity [40, 47]?
Answer: Its residual activity is 47.3%.

Question: And the inhibition [41]?
Answer: The inhibition was 21.8%.

Question: What about the inhibition [42] of the same molecule?
Answer: The inhibition was -1%.

Question: And the inhibition [43]?
Answer: Its inhibition is -9.99%.

Question: What about the inhibition [44] of the same molecule?
Answer: Its inhibition is 16.1%.

Question: And the inhibition [45]?
Answer: The inhibition was 35.8%.

Question: And the inhibition [46]?
Answer: Its inhibition is 8.66%.

Question: How did the residual activity [1, 48] turn out when `C[C@H](NC(=O)Nc1cc2[nH]ncc2c(CO)n1)c1ccccn1` [ERKi-NC] was run?
Answer: The residual activity was 100%.

Question: What about the residual activity [2, 48] of the same molecule?
Answer: Its residual activity is 100%.

Question: What about the residual activity [3, 48] of the same molecule?
Answer: The residual activity was 100%.

Question: What about the residual activity [4, 48] of the same molecule?
Answer: Its residual activity is 100%.

Question: What about the residual activity [5, 48] of the same molecule?
Answer: The residual activity was 100%.

Question: What about the residual activity [6, 48] of the same molecule?
Answer: The residual activity was 100%.

Question: What about the residual activity [7, 48] of the same molecule?
Answer: The residual activity was 100%.

Question: And the residual activity [8, 48]?
Answer: The residual activity was 100%.

Question: What about the residual activity [9, 48] of the same molecule?
Answer: The residual activity was 100%.

Question: What about the residual activity [10, 48] of the same molecule?
Answer: The residual activity was 100%.

Question: And the residual activity [11, 48]?
Answer: The residual activity was 100%.

Question: And the residual activity [12, 48]?
Answer: Its residual activity is 100%.

Question: And the residual activity [13, 48]?
Answer: The residual activity was 61%.

Question: And the residual activity [14, 48]?
Answer: Its residual activity is 100%.

Question: And the residual activity [15, 48]?
Answer: The residual activity was 100%.

Question: And the residual activity [16, 48]?
Answer: The residual activity was 78%.

Question: And the residual activity [17, 48]?
Answer: Its residual activity is 100%.

Question: And the residual activity [18, 48]?
Answer: Its residual activity is 96.9%.

Question: And the residual activity [19, 48]?
Answer: The residual activity was 100%.

Question: What about the residual activity [20, 48] of the same molecule?
Answer: Its residual activity is 89.4%.

Question: And the residual activity [21, 48]?
Answer: The residual activity was 85.5%.

Question: What about the residual activity [22, 48] of the same molecule?
Answer: Its residual activity is 100%.

Question: What about the residual activity [23, 48] of the same molecule?
Answer: The residual activity was 89.6%.

Question: And the residual activity [24, 48]?
Answer: The residual activity was 90.7%.

Question: What about the residual activity [25, 48] of the same molecule?
Answer: The residual activity was 53.8%.

Question: And the residual activity [26, 48]?
Answer: Its residual activity is 100%.

Question: And the residual activity [27, 48]?
Answer: The residual activity was 100%.

Question: What about the residual activity [28, 48] of the same molecule?
Answer: The residual activity was 77.4%.

Question: What about the residual activity [29, 48] of the same molecule?
Answer: The residual activity was 95.4%.

Question: And the residual activity [30, 48]?
Answer: Its residual activity is 100%.

Question: What about the residual activity [31, 48] of the same molecule?
Answer: The residual activity was 100%.

Question: And the residual activity [32, 48]?
Answer: Its residual activity is 100%.

Question: And the residual activity [33, 48]?
Answer: The residual activity was 93.6%.

Question: What about the residual activity [34, 48] of the same molecule?
Answer: Its residual activity is 100%.

Question: And the residual activity [35, 48]?
Answer: The residual activity was 76%.

Question: What about the residual activity [36, 48] of the same molecule?
Answer: Its residual activity is 100%.

Question: And the residual activity [37, 48]?
Answer: The residual activity was 59.2%.

Question: And the residual activity [38, 48]?
Answer: The residual activity was 97%.

Question: What about the residual activity [39, 48] of the same molecule?
Answer: The residual activity was 100%.

Question: What about the residual activity [40, 48] of the same molecule?
Answer: The residual activity was 100%.

Question: What about the inhibition [41] of the same molecule?
Answer: Its inhibition is 33.4%.

Question: What about the inhibition [42] of the same molecule?
Answer: The inhibition was 16.6%.

Question: And the inhibition [43]?
Answer: Its inhibition is 25.4%.

Question: What about the inhibition [44] of the same molecule?
Answer: Its inhibition is -8.5%.

Question: What about the inhibition [45] of the same molecule?
Answer: The inhibition was 7.22%.

Question: What about the inhibition [46] of the same molecule?
Answer: Its inhibition is -1.65%.
